Source: ChEMBL document CHEMBL5528046, “Discovery of Novel PROTAC Degraders of p300/CBP as Potential Therapeutics for Hepatocellular Carcinoma” (J Med Chem, 2024)

Target: T1, Protein cereblon/Histone acetyltransferase p300 (Homo sapiens, UniProt Q09472+Q96SW2)
T1 sequence (Q09472 2-2414 limits assumed): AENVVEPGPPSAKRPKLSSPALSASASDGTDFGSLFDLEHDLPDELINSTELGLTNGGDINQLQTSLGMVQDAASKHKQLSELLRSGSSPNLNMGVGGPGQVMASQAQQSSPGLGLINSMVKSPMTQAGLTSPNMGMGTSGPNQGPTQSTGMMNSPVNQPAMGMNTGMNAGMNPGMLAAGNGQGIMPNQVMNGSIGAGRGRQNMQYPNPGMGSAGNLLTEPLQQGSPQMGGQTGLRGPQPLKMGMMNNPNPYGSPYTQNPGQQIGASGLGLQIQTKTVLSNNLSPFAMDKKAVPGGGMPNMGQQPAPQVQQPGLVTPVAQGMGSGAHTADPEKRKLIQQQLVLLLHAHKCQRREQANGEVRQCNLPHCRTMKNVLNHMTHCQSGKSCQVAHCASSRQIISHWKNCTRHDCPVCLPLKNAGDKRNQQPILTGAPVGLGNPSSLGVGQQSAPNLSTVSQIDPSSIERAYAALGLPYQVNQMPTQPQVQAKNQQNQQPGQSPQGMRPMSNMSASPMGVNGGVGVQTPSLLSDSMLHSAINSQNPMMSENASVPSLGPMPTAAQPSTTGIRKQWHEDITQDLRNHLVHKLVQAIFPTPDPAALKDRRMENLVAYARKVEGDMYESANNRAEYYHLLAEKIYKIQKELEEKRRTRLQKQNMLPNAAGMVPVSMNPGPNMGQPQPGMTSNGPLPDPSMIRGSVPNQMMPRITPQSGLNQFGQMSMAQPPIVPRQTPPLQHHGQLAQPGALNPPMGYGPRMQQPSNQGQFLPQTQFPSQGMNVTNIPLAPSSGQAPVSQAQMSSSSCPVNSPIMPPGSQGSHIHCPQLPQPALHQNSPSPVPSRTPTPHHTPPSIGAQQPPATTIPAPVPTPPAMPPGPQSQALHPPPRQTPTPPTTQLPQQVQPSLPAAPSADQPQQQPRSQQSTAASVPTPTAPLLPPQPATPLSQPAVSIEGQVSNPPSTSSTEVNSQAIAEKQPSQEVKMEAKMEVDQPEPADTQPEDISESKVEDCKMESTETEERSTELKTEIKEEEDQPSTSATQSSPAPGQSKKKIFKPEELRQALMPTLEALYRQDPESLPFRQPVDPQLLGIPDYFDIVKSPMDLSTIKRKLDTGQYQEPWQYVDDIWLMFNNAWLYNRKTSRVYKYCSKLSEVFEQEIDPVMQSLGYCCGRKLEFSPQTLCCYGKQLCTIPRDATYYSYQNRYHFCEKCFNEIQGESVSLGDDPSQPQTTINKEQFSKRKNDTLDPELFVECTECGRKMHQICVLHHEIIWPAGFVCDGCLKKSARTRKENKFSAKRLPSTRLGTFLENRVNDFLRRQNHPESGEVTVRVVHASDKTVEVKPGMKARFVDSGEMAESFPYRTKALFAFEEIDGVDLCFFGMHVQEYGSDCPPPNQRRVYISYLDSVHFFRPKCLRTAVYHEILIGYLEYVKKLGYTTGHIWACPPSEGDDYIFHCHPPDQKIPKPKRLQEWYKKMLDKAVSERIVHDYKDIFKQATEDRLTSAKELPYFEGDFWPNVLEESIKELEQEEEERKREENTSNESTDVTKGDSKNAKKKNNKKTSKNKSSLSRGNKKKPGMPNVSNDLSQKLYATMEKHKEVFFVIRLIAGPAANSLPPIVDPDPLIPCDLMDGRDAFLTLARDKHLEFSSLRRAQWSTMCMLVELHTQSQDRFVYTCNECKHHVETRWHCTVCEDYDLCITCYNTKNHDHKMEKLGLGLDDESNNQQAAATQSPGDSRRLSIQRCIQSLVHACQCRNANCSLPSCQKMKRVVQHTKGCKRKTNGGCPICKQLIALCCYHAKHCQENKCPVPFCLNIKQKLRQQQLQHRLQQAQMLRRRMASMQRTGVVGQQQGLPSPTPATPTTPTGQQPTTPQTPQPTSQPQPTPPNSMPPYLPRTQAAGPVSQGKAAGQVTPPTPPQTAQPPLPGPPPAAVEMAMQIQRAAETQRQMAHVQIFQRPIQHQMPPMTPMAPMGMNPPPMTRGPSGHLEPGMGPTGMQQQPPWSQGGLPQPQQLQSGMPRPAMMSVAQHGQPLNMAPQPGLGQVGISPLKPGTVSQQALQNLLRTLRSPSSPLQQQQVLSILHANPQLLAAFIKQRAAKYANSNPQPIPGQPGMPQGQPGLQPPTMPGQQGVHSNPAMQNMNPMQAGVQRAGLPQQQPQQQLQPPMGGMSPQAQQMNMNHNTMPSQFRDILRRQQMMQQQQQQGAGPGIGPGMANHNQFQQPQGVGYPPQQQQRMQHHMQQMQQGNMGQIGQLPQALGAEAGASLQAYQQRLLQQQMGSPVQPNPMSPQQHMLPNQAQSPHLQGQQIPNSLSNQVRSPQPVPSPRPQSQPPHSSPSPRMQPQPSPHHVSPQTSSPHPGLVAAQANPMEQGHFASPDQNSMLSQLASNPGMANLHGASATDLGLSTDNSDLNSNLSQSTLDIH
T1 sequence (Q96SW2 whole entry partner): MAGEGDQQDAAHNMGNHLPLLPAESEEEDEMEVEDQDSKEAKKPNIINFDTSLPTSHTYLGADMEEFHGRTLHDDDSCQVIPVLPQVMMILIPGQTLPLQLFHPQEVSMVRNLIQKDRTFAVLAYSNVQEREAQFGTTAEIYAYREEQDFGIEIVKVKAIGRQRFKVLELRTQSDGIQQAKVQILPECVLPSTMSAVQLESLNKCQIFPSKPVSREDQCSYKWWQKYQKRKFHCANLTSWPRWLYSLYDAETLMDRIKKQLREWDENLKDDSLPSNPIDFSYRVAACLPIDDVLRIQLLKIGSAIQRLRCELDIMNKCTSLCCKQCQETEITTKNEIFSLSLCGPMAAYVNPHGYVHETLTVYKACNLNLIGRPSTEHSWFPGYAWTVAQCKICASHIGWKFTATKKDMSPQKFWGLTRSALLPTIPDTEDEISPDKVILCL
Test: PROTAC activity at CRBN/p300 in human SK-HEP1 cells assessed as induction of p300 protein degradation at 0.01 uM incubated for 24 hrs relative to control
Type: cell-based
Conditions: not given
`Cc1noc(C)c1-c1ccc2c(c1)nc([C@@H]1CCCC(=O)N1c1ccc(F)c(F)c1)n2C1CN(C2CN(c3ccc4c(c3)C(=O)N(C3CCC(=O)NC3=O)C4=O)C2)C1` (some centres undefined) showed an Activity of less than 1%.
Compound `Cc1noc(C)c1-c1ccc2c(c1)nc([C@@H]1CCCC(=O)N1c1ccc(F)c(F)c1)n2C1CN(C2CCN(c3ccc4c(c3)C(=O)N(C3CCC(=O)NC3=O)C4=O)CC2)C1` (some centres undefined) has an Activity of 4%.
Work on `Cc1noc(C)c1-c1ccc2c(c1)nc([C@@H]1CCCC(=O)N1c1ccc(F)c(F)c1)n2C1CCN(C(=O)CCOCCOCCOCCNc2cccc3c2C(=O)N(C2CCC(=O)NC2=O)C3=O)CC1` (some centres undefined) yielded an Activity of less than 1%.
`Cc1noc(C)c1-c1ccc2c(c1)nc([C@@H]1CCCC(=O)N1c1ccc(F)c(F)c1)n2C1CCN(C2CCN(c3cccc4c3C(=O)N(C3CCC(=O)NC3=O)C4=O)CC2)CC1` (some centres undefined) showed an Activity of 4%.
`Cc1noc(C)c1-c1ccc2c(c1)nc([C@@H]1CCCC(=O)N1c1ccc(F)c(F)c1)n2C1CCN(C(=O)CCOCCNc2cccc3c2C(=O)N(C2CCC(=O)NC2=O)C3=O)CC1` (some centres undefined) showed an Activity of less than 1%.
Compound `Cc1noc(C)c1-c1ccc2c(c1)nc([C@@H]1CCCC(=O)N1c1ccc(F)c(F)c1)n2C1CCN(C(=O)CNc2cccc3c2C(=O)N(C2CCC(=O)NC2=O)C3=O)CC1` (some centres undefined) has an Activity of less than 1%.
Work on `Cc1noc(C)c1-c1ccc2c(c1)nc([C@@H]1CCCC(=O)N1c1ccc(F)c(F)c1)n2C1CN(C2CCN(c3cccc4c3C(=O)N(C3CCC(=O)NC3=O)C4=O)CC2)C1` (some centres undefined) yielded an Activity of less than 1%.
Work on `Cc1noc(C)c1-c1ccc2c(c1)nc([C@@H]1CCCC(=O)N1c1ccc(F)c(F)c1)n2C1CCN(C(=O)CCOCCOCCOCCOCCNc2ccc3c(c2)C(=O)N(C2CCC(=O)NC2=O)C3=O)CC1` (some centres undefined) yielded an Activity of less than 1%.
Work on `Cc1noc(C)c1-c1ccc2c(c1)nc([C@@H]1CCCC(=O)N1c1ccc(F)c(F)c1)n2C1CCN(c2cccc3c2C(=O)N(C2CCC(=O)NC2=O)C3=O)CC1` (some centres undefined) yielded an Activity of less than 1%.
For `CNC(=O)N1CCc2c(c(N3CCCc4cc(-c5cnn(C)c5)c(C(F)F)cc43)nn2C2CCN(C(=O)CCOCCOCCOCCOCCNc3ccc4c(c3)C(=O)N(C3CCC(=O)NC3=O)C4=O)CC2)C1` (centres undefined), the Activity was 3%.
With `Cc1noc(C)c1-c1ccc2c(c1)nc([C@@H]1CCCC(=O)N1c1ccc(F)c(F)c1)n2C1CCN(C(=O)CCOCCOCCOCCNc2ccc3c(c2)C(=O)N(C2CCC(=O)NC2=O)C3=O)CC1` (some centres undefined) the Activity was less than 1%.

Target: T1, Protein cereblon/Histone acetyltransferase p300
Test: PROTAC activity at CRBN/p300 in human SK-HEP1 cells assessed as induction of p300 protein degradation at 0.1 uM incubated for 24 hrs relative to control
Type: cell-based
Conditions: not given
`Cc1noc(C)c1-c1ccc2c(c1)nc([C@@H]1CCCC(=O)N1c1ccc(F)c(F)c1)n2C1CN(C2CN(c3ccc4c(c3)C(=O)N(C3CCC(=O)NC3=O)C4=O)C2)C1` (some centres undefined) showed an Activity of less than 1%.
In the case of `Cc1noc(C)c1-c1ccc2c(c1)nc([C@@H]1CCCC(=O)N1c1ccc(F)c(F)c1)n2C1CN(C2CCN(c3ccc4c(c3)C(=O)N(C3CCC(=O)NC3=O)C4=O)CC2)C1` (some centres undefined), the Activity is reported as less than 1%.
`Cc1noc(C)c1-c1ccc2c(c1)nc([C@@H]1CCCC(=O)N1c1ccc(F)c(F)c1)n2C1CCN(C(=O)CCOCCOCCOCCNc2cccc3c2C(=O)N(C2CCC(=O)NC2=O)C3=O)CC1` (some centres undefined) gave an Activity of less than 1%.
Compound `Cc1noc(C)c1-c1ccc2c(c1)nc([C@@H]1CCCC(=O)N1c1ccc(F)c(F)c1)n2C1CCN(C2CCN(c3cccc4c3C(=O)N(C3CCC(=O)NC3=O)C4=O)CC2)CC1` (some centres undefined) has an Activity of 6%.
Compound `Cc1noc(C)c1-c1ccc2c(c1)nc([C@@H]1CCCC(=O)N1c1ccc(F)c(F)c1)n2C1CCN(C(=O)CCOCCNc2cccc3c2C(=O)N(C2CCC(=O)NC2=O)C3=O)CC1` (some centres undefined) has an Activity of less than 1%.
In the case of `Cc1noc(C)c1-c1ccc2c(c1)nc([C@@H]1CCCC(=O)N1c1ccc(F)c(F)c1)n2C1CCN(C(=O)CNc2cccc3c2C(=O)N(C2CCC(=O)NC2=O)C3=O)CC1` (some centres undefined), the Activity is reported as less than 1%.
In the case of `Cc1noc(C)c1-c1ccc2c(c1)nc([C@@H]1CCCC(=O)N1c1ccc(F)c(F)c1)n2C1CN(C2CCN(c3cccc4c3C(=O)N(C3CCC(=O)NC3=O)C4=O)CC2)C1` (some centres undefined), the Activity is reported as 8%.
With `Cc1noc(C)c1-c1ccc2c(c1)nc([C@@H]1CCCC(=O)N1c1ccc(F)c(F)c1)n2C1CCN(C(=O)CCOCCOCCOCCOCCNc2ccc3c(c2)C(=O)N(C2CCC(=O)NC2=O)C3=O)CC1` (some centres undefined) the Activity was less than 1%.
In the case of `Cc1noc(C)c1-c1ccc2c(c1)nc([C@@H]1CCCC(=O)N1c1ccc(F)c(F)c1)n2C1CCN(c2cccc3c2C(=O)N(C2CCC(=O)NC2=O)C3=O)CC1` (some centres undefined), the Activity is reported as less than 1%.
Compound `CNC(=O)N1CCc2c(c(N3CCCc4cc(-c5cnn(C)c5)c(C(F)F)cc43)nn2C2CCN(C(=O)CCOCCOCCOCCOCCNc3ccc4c(c3)C(=O)N(C3CCC(=O)NC3=O)C4=O)CC2)C1` (centres undefined) has an Activity of 7%.
Work on `Cc1noc(C)c1-c1ccc2c(c1)nc([C@@H]1CCCC(=O)N1c1ccc(F)c(F)c1)n2C1CCN(C(=O)CCOCCOCCOCCNc2ccc3c(c2)C(=O)N(C2CCC(=O)NC2=O)C3=O)CC1` (some centres undefined) yielded an Activity of less than 1%.

Target: T1, Protein cereblon/Histone acetyltransferase p300
Test: PROTAC activity at CRBN/p300 in human SK-HEP1 cells assessed as induction of p300 protein degradation at 1 uM incubated for 24 hrs relative to control
Type: cell-based
Conditions: not given
For `Cc1noc(C)c1-c1ccc2c(c1)nc([C@@H]1CCCC(=O)N1c1ccc(F)c(F)c1)n2C1CN(C2CN(c3ccc4c(c3)C(=O)N(C3CCC(=O)NC3=O)C4=O)C2)C1` (some centres undefined), the Activity was 27%.
`Cc1noc(C)c1-c1ccc2c(c1)nc([C@@H]1CCCC(=O)N1c1ccc(F)c(F)c1)n2C1CN(C2CCN(c3ccc4c(c3)C(=O)N(C3CCC(=O)NC3=O)C4=O)CC2)C1` (some centres undefined) gave an Activity of 26%.
Work on `Cc1noc(C)c1-c1ccc2c(c1)nc([C@@H]1CCCC(=O)N1c1ccc(F)c(F)c1)n2C1CCN(C(=O)CCOCCOCCOCCNc2cccc3c2C(=O)N(C2CCC(=O)NC2=O)C3=O)CC1` (some centres undefined) yielded an Activity of 8%.
In the case of `Cc1noc(C)c1-c1ccc2c(c1)nc([C@@H]1CCCC(=O)N1c1ccc(F)c(F)c1)n2C1CCN(C2CCN(c3cccc4c3C(=O)N(C3CCC(=O)NC3=O)C4=O)CC2)CC1` (some centres undefined), the Activity is reported as 9%.
In the case of `Cc1noc(C)c1-c1ccc2c(c1)nc([C@@H]1CCCC(=O)N1c1ccc(F)c(F)c1)n2C1CCN(C(=O)CCOCCNc2cccc3c2C(=O)N(C2CCC(=O)NC2=O)C3=O)CC1` (some centres undefined), the Activity is reported as 15%.
Compound `Cc1noc(C)c1-c1ccc2c(c1)nc([C@@H]1CCCC(=O)N1c1ccc(F)c(F)c1)n2C1CCN(C(=O)CNc2cccc3c2C(=O)N(C2CCC(=O)NC2=O)C3=O)CC1` (some centres undefined) has an Activity of 18%.
In the case of `Cc1noc(C)c1-c1ccc2c(c1)nc([C@@H]1CCCC(=O)N1c1ccc(F)c(F)c1)n2C1CN(C2CCN(c3cccc4c3C(=O)N(C3CCC(=O)NC3=O)C4=O)CC2)C1` (some centres undefined), the Activity is reported as 28%.
Work on `Cc1noc(C)c1-c1ccc2c(c1)nc([C@@H]1CCCC(=O)N1c1ccc(F)c(F)c1)n2C1CCN(C(=O)CCOCCOCCOCCOCCNc2ccc3c(c2)C(=O)N(C2CCC(=O)NC2=O)C3=O)CC1` (some centres undefined) yielded an Activity of 28%.
With `Cc1noc(C)c1-c1ccc2c(c1)nc([C@@H]1CCCC(=O)N1c1ccc(F)c(F)c1)n2C1CCN(c2cccc3c2C(=O)N(C2CCC(=O)NC2=O)C3=O)CC1` (some centres undefined) the Activity was 39%.
In the case of `CNC(=O)N1CCc2c(c(N3CCCc4cc(-c5cnn(C)c5)c(C(F)F)cc43)nn2C2CCN(C(=O)CCOCCOCCOCCOCCNc3ccc4c(c3)C(=O)N(C3CCC(=O)NC3=O)C4=O)CC2)C1` (centres undefined), the Activity is reported as 18%.
Compound `Cc1noc(C)c1-c1ccc2c(c1)nc([C@@H]1CCCC(=O)N1c1ccc(F)c(F)c1)n2C1CCN(C(=O)CCOCCOCCOCCNc2ccc3c(c2)C(=O)N(C2CCC(=O)NC2=O)C3=O)CC1` (some centres undefined) has an Activity of 19%.

Tested on: SK-HEP1
Test: Antiproliferative activity against human SK-HEP1 cells assessed as inhibition of cell growth incubated for 5 days by CCK-8 assay
Type: functional, cell-based
Conditions: SK-HEP1, 120 h
In the case of `CO[C@H]1CC[C@H](n2c([C@@H]3CCCC(=O)N3c3ccc(F)c(F)c3)nc3cc(-c4c(C)noc4C)ccc32)CC1` [INOBRODIB], the IC50 is reported as 4.68 µM.
`CNC(=O)N1CCc2c(c(N3CCCc4cc(-c5cnn(C)c5)c(C(F)F)cc43)nn2C2CCN(C(=O)CCOCCOCCOCCOCCNc3ccc4c(c3)C(=O)N(C3CCC(=O)NC3=O)C4=O)CC2)C1` (centres undefined) showed an IC50 greater than 20 µM.

Tested on: not listed separately
Test: Antiproliferative activity against human JHH7 cells assessed as inhibition of cell growth incubated for 5 days by CCK-8 assay
Type: functional, cell-based
Conditions: JHH7, 120 h
In the case of `CO[C@H]1CC[C@H](n2c([C@@H]3CCCC(=O)N3c3ccc(F)c(F)c3)nc3cc(-c4c(C)noc4C)ccc32)CC1` [INOBRODIB], the IC50 is reported as 9.7 µM.
Work on `CNC(=O)N1CCc2c(c(N3CCCc4cc(-c5cnn(C)c5)c(C(F)F)cc43)nn2C2CCN(C(=O)CCOCCOCCOCCOCCNc3ccc4c(c3)C(=O)N(C3CCC(=O)NC3=O)C4=O)CC2)C1` (centres undefined) yielded an IC50 greater than 20 µM.

Tested on: SK-HEP1
Test: Induction of cell cycle arrest at G2/M phase in human SK-HEP1 cells assessed as SKP2 protein level at 2 uM incubated for 24 hrs by immunoblotting analysis (reference value: 100%)
Type: functional
Conditions: not given
In the case of `CO[C@H]1CC[C@H](n2c([C@@H]3CCCC(=O)N3c3ccc(F)c(F)c3)nc3cc(-c4c(C)noc4C)ccc32)CC1` [INOBRODIB], the Activity is reported as 95%.

Tested on: SK-HEP1
Test: Induction of cell cycle arrest at G2/M phase in human SK-HEP1 cells assessed as reduction in CDK6 protein level at 2 uM incubated for 24 hrs by immunoblotting analysis (reference value: 100%)
Type: functional
Set-up: scale not given: the % may be the effect or the level left
Conditions: not given
Work on `CO[C@H]1CC[C@H](n2c([C@@H]3CCCC(=O)N3c3ccc(F)c(F)c3)nc3cc(-c4c(C)noc4C)ccc32)CC1` [INOBRODIB] yielded an Activity of 96%.
